Assays:
Type in all cases: in vivo
[1] = test system: green rice leaf hoppers (Nephotettix cincticeps); assay: Nephotettix-Test (rice seedling dip); settings: concentration of active compound 0.1%, after 6 days, rice seedlings dipped
Experimental: (§1) To produce a suitable preparation of active compound, 1 part by weight of active compound is mixed with the stated amount of solvent and the stated amount of emulsifier, and the concentrate is diluted with water to the desired concentration.
Rice seedlings (Oryzae sativa) are treated by being dipped into the preparation of active compound of the desired concentration and are populated with the green rice leaf hoppers (Nephotettix cincticeps) while the seedlings are still moist.
After the desired period of time, the kill in % is determined. 100% means that all leaf hoppers have been killed; 0% means that none of the leaf hoppers have been killed.

[2] = test system: larvae of the mustard beetle (Phaedon cochleariae); assay: Phaedon larvae Test (cabbage leaf dip); settings: concentration of active compound 0.1%, after 7 days, cabbage leaves dipped
Experimental: Phaedon larvae Test [table] To produce a suitable preparation of active compound, 1 part by weight of active compound is mixed with the stated amount of solvent and the stated amount of emulsifier, and the concentrate is diluted with water to the desired concentration. Cabbage leaves (Brassica oleracea) are treated by being dipped into the preparation of active compound of the desired concentration and are populated with larvae of the mustard beetle (Phaedon cochleariae) while the leaves are still moist.

[3] = test system: greenhouse red spider mite Tetranychus urticae; assay: Tetranychus Test (OP-resistent/dip Treatment); settings: concentration of active compound 0.1%, after 13 days, infested bean plants dipped, all stages
Experimental: Tetranychus Test (OP-resistent/dip Treatment)
as §1
Bean plants (Phaseolus vulgaris) which are heavily infested by all stages of the greenhouse red spider mite Tetranychus urticae are dipped into a perparation of active compound of the desired concentration.
After the desired period of time, the kill in % is determined. 100% means that all spider mites haven been killed: 0% means that none of the spider mites have been killed.

[4] = test system: peach aphids (Myzus persicae); assay: Myzus-Test (cabbage leaf dip); settings: concentration of active compound 0.1%, after 6 days, infested cabbage leaves dipped
Experimental: To produce a suitable preparation of active compound, 1 part by weight of active compound is mixed with the state amount of solvent and the stated amount of emulsifier, and the concentrate is diluted with water to the desired concentration.
Cabbage leaves (Brassica oleracea) which are heavily infested by peach aphids (Myzus persicae) are treated by being dipped into the preparation of active compound of the desired concentration.
After the desired period of time, the kill in % is determined. 100% means that all aphids have been killed; 0% means that none of the aphids have been killed.

[5] = test system: caterpillars of the owlet moth Spodoptera frugiperda; assay: Spodoptera frugiperda Test (cabbage leaf dip); settings: concentration of active compound 0.1%, after 7 days, cabbage leaves dipped
Experimental: Spodoptera frugiperda Test
as §1
Cabbage leaves (Brassica oleracea) are treated by being dipped into the preparation of active compound of the desired concentration and are populated with caterpillars of the owlet moth Spodoptera frugiperda) while the leaves are still moist.
After the desired period of time, the kill in % is determined. 100% means that all caterpillars have been killed; 0% means that none of the caterpillars haven been killed.

Measured: kill in %

Cc1cc(C)c(C2=C(O)C3(CCCOC3)NC2=O)c(C)c1 (stereo not drawn) [Example I-1-a-1]
100%: [1] | [2] | [3]

Cc1cc(C)c(C2=C(OC(=O)C(C)(C)C)C3(CCCOC3)NC2=O)c(C)c1 (stereo not drawn) [Example I-1-b-1]
100%: [1] | [2] | [3]

CCOC(=O)OC1=C(c2c(C)cc(C)cc2C)C(=O)NC12CCCOC2 (stereo not drawn) [Example I-1-c-1]
100%: [4] | [5] | [3]

From patent US6630594B2, “Methods of making substituted phenylketoenols” (Bayer Aktiengesellschaft, priority 1996, dated 2003)
